Assay results: patent US20160177395A1, “BIOMARKERS FOR THE PREDICTION OF RENAL INJURY” (priority 2007, published 2016)

System: kidney tissues
Assay: Random-Forest classifier for renal toxicity, discovery stage (Day-5 and Day-1 signatures)
Parameters: species or system rat
Settings: Day-5 animals, qRT-PCR data, signature of Table 13
Description: Finding signatures using machine learning algorithms requires two steps—selecting a limited set of features to be used for the signature, and building a classifier using these features. The feature selection stage is especially significant here for several reasons. Large number of features means a low signal to noise ratio, tampering the classifier performance, large number of features, compared to the relatively small number of samples, means that spurious features might exists. These are features that give good classification on the experiment data by chance, causing the classifier to be over-fitted to the learning set and have low prediction ability, and finally—a small number of features is important for practical application of the signature.
The initial features selection process is done by performing Mann-Whitney (Wilcoxon) rank-sum test on the data, considering only probesets whose overall normalized expression mean is over 25, to avoid working at noise-level. […]
The qRT-PCR data was used to construct the optimal Random-Forest classifier for Day-5 (Table 13) and Day-1 (Table 16). The optimal performance of the Day-5 signatures, as measured by cross validation is—Accuracy of 94% and LOR of 5.6. […]

With [Cl][Cd][Cl] [Cadmium chloride] the “Samples classified correctly as toxic by the optimal Day-5 classifier” value was 5 out of 6.
